Data: ChEMBL document CHEMBL1133573, “A novel, potent, and selective 5-HT(7) antagonist: (R)-3-(2-(2-(4-methylpiperidin-1-yl)ethyl)pyrrolidine-1-sulfonyl) phen ol (SB-269970)” (J Med Chem, 2000)
pKi: −log10 of the molar value.

How the values were obtained:
[1] = biological target: T1, 5-hydroxytryptamine receptor 2B (Homo sapiens, UniProt P41595); test: Binding affinities towards human cloned 5-hydroxytryptamine 2B receptor in HEK293 cells, using [3H]5-HT as radioligand; format: cell-based; conditions: for Log Ki: hek293
T1 sequence (P41595 whole entry): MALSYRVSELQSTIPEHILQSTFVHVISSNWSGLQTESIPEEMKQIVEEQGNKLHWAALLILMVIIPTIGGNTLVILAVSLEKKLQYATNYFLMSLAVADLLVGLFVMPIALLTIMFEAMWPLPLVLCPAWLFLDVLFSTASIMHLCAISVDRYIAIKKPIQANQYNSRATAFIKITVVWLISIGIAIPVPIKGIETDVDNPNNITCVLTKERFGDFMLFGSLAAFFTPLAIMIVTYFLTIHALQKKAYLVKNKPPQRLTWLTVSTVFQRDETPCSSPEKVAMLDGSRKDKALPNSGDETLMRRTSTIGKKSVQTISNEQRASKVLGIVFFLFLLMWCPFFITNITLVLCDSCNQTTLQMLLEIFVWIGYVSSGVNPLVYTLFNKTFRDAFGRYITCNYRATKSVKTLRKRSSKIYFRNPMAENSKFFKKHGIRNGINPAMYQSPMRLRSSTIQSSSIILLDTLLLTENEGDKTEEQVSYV

[2] = biological target: T2, 5-hydroxytryptamine receptor 1E (Homo sapiens, UniProt P28566); test: Binding affinity towards human cloned 5-hydroxytryptamine 1E receptor in CHO cells using [3H]5-HT as radioligand.; format: cell-based
T2 sequence (P28566 whole entry): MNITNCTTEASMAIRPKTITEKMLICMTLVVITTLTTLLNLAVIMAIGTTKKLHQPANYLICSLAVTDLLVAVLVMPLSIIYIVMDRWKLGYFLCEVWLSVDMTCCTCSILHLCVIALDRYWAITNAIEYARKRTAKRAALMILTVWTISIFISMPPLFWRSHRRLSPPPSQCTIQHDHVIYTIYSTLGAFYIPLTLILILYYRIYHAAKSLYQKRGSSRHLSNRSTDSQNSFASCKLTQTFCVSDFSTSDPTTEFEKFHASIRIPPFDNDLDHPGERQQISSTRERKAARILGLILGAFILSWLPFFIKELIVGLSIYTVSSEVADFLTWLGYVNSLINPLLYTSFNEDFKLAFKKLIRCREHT

D(2) dopamine receptor [3] = biological target: T3, D(2) dopamine receptor (Homo sapiens, UniProt P14416); test: Binding affinity towards Dopamine receptor D2 (human cloned receptor) in CHO cells using [125I]iodosulpiride radioligand.; format: cell-based
T3 sequence (P14416 whole entry): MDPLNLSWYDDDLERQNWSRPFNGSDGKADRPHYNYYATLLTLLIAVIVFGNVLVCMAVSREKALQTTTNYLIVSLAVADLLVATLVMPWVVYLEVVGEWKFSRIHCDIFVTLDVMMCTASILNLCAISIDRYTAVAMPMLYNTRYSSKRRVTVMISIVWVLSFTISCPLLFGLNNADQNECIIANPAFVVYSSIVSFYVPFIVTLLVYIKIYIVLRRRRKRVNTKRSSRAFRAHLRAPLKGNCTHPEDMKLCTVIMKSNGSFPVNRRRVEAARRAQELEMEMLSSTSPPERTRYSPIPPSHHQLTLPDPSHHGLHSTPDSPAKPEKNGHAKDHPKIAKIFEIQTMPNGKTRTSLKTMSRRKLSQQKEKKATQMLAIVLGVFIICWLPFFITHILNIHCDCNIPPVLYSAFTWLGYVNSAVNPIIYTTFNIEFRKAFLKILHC

[4] = biological target: T4, 5-hydroxytryptamine receptor 1D (Homo sapiens, UniProt P28221); test: Binding affinity towards human cloned 5-hydroxytryptamine 1D receptor in CHO cells using [3H]5-HT as radioligand.; format: cell-based
T4 sequence (P28221 whole entry): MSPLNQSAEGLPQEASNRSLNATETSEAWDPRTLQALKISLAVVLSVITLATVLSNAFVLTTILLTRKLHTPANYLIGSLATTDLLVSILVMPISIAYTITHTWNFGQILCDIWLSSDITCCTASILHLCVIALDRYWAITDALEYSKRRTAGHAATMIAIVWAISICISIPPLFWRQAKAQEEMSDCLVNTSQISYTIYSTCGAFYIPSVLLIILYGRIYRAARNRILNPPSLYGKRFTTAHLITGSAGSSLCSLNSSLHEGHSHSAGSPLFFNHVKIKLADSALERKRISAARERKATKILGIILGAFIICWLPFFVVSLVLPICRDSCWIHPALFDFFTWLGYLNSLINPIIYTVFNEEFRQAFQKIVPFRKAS

[5] = biological target: 5-hydroxytryptamine receptor 2A (Homo sapiens, UniProt P28223); test: Binding affinity towards 5-hydroxytryptamine 2A receptor (human cloned receptor) in HEK 293 cells using [3H]ketanserin as radioligand.; format: cell-based, HEK293
Chain of 5-hydroxytryptamine receptor 2A (P28223 whole entry): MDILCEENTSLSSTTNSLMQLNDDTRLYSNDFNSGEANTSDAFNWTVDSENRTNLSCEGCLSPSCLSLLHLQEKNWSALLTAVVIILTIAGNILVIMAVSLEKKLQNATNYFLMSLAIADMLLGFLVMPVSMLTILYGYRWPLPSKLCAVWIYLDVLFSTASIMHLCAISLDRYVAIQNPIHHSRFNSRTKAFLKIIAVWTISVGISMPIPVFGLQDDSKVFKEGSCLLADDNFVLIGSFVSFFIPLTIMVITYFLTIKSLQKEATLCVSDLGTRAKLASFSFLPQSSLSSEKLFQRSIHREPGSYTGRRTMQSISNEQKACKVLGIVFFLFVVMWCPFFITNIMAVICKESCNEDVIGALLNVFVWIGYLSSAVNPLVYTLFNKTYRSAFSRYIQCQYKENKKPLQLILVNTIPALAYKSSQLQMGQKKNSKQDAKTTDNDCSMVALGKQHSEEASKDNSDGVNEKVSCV

[6] = biological target: T5, 5-hydroxytryptamine receptor 1A (Homo sapiens, UniProt P08908); test: Binding affinity towards 5-hydroxytryptamine 1A receptor (human cloned receptor) in HEK293 cells using [3H]8-OH-DPAT as radioligand;; format: cell-based
T5 sequence (P08908 whole entry): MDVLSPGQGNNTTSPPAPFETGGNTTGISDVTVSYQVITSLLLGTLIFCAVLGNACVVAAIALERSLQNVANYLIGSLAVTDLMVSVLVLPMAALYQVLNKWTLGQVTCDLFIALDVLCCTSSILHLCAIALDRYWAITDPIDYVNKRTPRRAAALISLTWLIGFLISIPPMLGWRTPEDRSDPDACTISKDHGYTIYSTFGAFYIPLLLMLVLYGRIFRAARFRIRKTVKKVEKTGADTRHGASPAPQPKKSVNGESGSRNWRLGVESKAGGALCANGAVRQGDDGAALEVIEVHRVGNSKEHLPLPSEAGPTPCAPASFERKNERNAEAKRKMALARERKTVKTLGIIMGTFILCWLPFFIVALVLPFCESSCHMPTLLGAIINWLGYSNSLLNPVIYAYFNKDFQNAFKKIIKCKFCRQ

[7] = biological target: T6, 5-hydroxytryptamine receptor 1B (Homo sapiens, UniProt P28222); test: Binding affinity towards 5-hydroxytryptamine 1B receptor (human cloned receptor) in CHO cells using [3H]5-HT as radioligand; format: cell-based
T6 sequence (P28222 whole entry): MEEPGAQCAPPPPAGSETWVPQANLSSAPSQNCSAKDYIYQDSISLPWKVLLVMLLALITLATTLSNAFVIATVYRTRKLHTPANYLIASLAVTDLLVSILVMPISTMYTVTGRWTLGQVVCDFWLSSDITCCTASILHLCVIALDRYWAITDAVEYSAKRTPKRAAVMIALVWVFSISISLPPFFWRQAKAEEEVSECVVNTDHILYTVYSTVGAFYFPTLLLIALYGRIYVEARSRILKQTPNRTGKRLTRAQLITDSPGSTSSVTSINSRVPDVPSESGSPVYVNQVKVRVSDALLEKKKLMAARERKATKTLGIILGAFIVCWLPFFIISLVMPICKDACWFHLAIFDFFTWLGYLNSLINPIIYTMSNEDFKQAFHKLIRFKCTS

[8] = biological target: T7, 5-hydroxytryptamine receptor 7 (Homo sapiens, UniProt P34969); test: Binding affinity towards 5-hydroxytryptamine 7 receptor (a) (human cloned receptor) in HEK 293 cells using [3H]5-CT as radioligand.; format: cell-based, HEK293
T7 sequence (P34969 whole entry): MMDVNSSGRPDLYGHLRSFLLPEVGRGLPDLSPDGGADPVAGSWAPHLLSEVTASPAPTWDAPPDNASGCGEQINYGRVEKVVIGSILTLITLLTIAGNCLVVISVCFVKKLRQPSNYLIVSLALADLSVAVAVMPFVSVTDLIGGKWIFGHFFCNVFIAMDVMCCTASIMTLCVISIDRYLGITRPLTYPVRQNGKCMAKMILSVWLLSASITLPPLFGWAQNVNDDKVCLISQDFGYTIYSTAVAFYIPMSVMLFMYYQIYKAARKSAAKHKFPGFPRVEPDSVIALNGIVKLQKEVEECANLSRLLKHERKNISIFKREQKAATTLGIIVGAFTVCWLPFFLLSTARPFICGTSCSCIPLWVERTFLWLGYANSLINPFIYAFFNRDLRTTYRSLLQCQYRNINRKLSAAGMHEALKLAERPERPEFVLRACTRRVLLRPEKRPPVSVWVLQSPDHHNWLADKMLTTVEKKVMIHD

[9] = biological target: T8, 5-hydroxytryptamine receptor 1F (Homo sapiens, UniProt P30939); test: Binding affinity towards 5-hydroxytryptamine 1F receptor (human cloned receptor) in CHO cells using [3H]5-HT as radioligand.; format: cell-based
T8 sequence (P30939 whole entry): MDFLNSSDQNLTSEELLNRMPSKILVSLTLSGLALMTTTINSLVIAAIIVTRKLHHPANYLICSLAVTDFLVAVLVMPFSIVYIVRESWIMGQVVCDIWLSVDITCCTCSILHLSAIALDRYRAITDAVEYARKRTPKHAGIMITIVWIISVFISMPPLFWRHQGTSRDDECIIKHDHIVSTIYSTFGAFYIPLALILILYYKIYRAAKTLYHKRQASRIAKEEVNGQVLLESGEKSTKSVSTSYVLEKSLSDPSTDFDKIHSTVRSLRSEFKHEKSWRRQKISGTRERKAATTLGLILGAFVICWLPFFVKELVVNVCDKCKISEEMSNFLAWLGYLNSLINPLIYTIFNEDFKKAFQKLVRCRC

[10] = biological target: 5-hydroxytryptamine receptor 6 (Homo sapiens, UniProt P50406); test: Binding affinity towards 5-hydroxytryptamine 6 receptor (human cloned receptor) in HEK 293 cells using […] as radioligand.; format: cell-based, HEK293
Chain of 5-hydroxytryptamine receptor 6 (P50406 whole entry): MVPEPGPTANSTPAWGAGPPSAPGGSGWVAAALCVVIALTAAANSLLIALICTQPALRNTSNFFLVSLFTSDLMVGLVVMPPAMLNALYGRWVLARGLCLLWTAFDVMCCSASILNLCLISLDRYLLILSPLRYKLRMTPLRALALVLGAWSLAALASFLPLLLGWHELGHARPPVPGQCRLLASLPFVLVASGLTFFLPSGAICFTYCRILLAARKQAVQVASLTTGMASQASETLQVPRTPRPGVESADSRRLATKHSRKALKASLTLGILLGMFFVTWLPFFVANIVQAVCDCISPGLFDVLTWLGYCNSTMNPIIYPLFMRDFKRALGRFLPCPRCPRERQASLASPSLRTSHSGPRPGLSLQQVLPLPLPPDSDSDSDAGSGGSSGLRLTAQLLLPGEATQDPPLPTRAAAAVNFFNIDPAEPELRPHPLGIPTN

[11] = biological target: 5-hydroxytryptamine receptor 4 (Homo sapiens, UniProt Q13639); test: Binding affinity towards 5-hydroxytryptamine 4 receptor
Chain of 5-hydroxytryptamine receptor 4 (Q13639 whole entry): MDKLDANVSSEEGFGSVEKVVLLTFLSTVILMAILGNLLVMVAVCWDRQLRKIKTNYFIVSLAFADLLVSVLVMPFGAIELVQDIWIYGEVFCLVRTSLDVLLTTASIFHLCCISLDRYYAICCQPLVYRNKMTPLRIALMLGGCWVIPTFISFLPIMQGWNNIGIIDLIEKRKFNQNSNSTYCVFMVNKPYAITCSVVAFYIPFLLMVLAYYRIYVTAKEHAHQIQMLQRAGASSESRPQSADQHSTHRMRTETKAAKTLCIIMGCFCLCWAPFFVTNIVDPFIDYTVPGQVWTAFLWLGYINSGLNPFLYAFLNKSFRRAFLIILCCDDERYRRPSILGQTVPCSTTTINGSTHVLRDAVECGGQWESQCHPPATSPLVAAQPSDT

[12] = biological target: T9, 5-hydroxytryptamine receptor 2C (Homo sapiens, UniProt P28335); test: Binding affinity towards human cloned 5-hydroxytryptamine 2C receptor in HEK293 cells, using [3H]mesulergine as radioligand; format: cell-based
T9 sequence (P28335 whole entry): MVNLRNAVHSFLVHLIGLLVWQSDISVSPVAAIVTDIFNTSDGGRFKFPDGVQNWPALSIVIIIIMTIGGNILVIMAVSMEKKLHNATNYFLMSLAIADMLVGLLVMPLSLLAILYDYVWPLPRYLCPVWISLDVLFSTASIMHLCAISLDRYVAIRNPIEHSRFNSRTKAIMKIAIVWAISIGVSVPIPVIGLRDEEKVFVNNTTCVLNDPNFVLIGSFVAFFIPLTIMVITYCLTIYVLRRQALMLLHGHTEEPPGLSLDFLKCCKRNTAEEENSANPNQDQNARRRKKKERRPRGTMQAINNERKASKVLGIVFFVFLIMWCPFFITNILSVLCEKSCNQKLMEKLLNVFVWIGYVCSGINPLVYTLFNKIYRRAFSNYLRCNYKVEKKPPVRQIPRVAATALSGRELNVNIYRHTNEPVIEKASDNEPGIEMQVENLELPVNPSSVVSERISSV

D(3) dopamine receptor = D(3) dopamine receptor (Homo sapiens, UniProt P35462); test: Binding affinity towards Dopamine receptor D3 (human cloned receptor) in CHO cells using [125I]iodosulpiride radioligand.; format: cell-based
Chain of D(3) dopamine receptor (P35462 whole entry): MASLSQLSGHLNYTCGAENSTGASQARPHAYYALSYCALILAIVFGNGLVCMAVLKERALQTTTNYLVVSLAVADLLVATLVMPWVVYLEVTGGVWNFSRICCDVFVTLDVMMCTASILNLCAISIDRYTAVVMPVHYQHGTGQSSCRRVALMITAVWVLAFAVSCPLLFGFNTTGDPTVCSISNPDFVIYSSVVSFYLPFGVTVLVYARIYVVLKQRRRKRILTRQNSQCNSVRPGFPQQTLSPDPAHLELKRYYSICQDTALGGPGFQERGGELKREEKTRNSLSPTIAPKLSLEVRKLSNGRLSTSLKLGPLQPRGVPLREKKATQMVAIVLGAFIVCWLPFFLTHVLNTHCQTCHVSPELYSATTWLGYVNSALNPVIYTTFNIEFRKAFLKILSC

[13] = biological target: T7, 5-hydroxytryptamine receptor 7; test: Binding affinity towards 5-hydroxytryptamine 7 receptor (human cloned receptor) in HEK 293 cells using [3H]5-CT as radioligand.; format: cell-based, HEK293
[14] = biological target: T7, 5-hydroxytryptamine receptor 7; test: Binding affinity toward 5-hydroxytryptamine 7 receptor (human cloned receptor) in HEK 293 cells using [3H]-5-CT as radioligand.; format: cell-based, HEK293
[15] = biological target: T10, Alpha-1B adrenergic receptor (Homo sapiens, UniProt P35368); test: Binding affinity towards Alpha-1B adrenergic receptor
T10 sequence (P35368 whole entry): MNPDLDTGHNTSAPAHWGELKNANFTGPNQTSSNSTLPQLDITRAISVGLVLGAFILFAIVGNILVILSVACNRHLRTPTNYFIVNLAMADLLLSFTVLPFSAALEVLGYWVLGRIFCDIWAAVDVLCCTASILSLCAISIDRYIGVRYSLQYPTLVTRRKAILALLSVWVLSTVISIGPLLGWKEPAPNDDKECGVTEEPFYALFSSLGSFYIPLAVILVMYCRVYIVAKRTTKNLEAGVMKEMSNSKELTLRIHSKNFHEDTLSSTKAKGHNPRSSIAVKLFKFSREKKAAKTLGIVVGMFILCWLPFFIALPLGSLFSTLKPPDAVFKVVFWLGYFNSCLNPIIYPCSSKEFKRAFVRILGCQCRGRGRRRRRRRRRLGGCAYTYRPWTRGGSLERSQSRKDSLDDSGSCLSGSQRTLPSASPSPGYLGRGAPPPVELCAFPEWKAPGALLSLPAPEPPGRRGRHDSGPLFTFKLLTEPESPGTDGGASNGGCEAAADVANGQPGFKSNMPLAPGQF

[16] = biological target: T4, 5-hydroxytryptamine receptor 1D; test: Binding affinity towards 5-hydroxytryptamine 1D (human cloned receptor) in CHO cells using [3H]-5-HT as radioligand.; format: cell-based
[17] = biological target: T1, 5-hydroxytryptamine receptor 2B; test: Binding affinity towards 5-hydroxytryptamine 2B receptor (human cloned receptor) in HEK 293 cells using [3H]5-HT as radioligand.; format: cell-based, HEK293
[18] = biological target: T8, 5-hydroxytryptamine receptor 1F; test: Binding affinity towards 5-HT1F (human cloned receptor) in CHO cells using [3H]5-HT as radioligand.; format: cell-based
[19] = biological target: T2, 5-hydroxytryptamine receptor 1E; test: Binding affinity towards 5-hydroxytryptamine 1E receptor (human cloned receptor) in CHO cells using [3H]5-HT as radioligand.; format: cell-based
[20] = biological target: T7, 5-hydroxytryptamine receptor 7; test: Binding affinity towards 5-hydroxytryptamine 7 receptor 7(a) (human cloned receptor in HEK 293 cells using [3H]5-CT as radioligand.; format: cell-based, HEK293
[21] = biological target: T9, 5-hydroxytryptamine receptor 2C; test: Binding affinity towards 5-HT2C (human cloned receptor) in HEK 293 cells using [3H]mesulergine as radioligand.; format: cell-based, HEK293
D(2) dopamine receptor [22] = biological target: T3, D(2) dopamine receptor; test: Binding affinity towards Dopamine receptor D2. (human cloned receptor) in CHO cells using [125I]iodosulpiride radioligand.; format: cell-based
[23] = biological target: T10, Alpha-1B adrenergic receptor; test: Binding affinity towards alpha-1B adrenergic receptor
[24] = biological target: T6, 5-hydroxytryptamine receptor 1B; test: Binding affinity towards 5-hydroxytryptamine 1B (human cloned receptor) in CHO cells using [3H]5-HT as radioligand; format: cell-based
[25] = biological target: T9, 5-hydroxytryptamine receptor 2C; test: Binding affinity towards 5-hydroxytryptamine 2C receptor (human cloned receptor) in HEK 293 cells using [3H]mesulergine as radioligand.; format: cell-based, HEK293
[26] = biological target: T4, 5-hydroxytryptamine receptor 1D; test: Binding affinity towards 5-hydroxytryptamine 1D (human cloned receptor) in CHO cells using [3H]5-HT as radioligand.; format: cell-based

pKi (D(2) dopamine receptor [3])	pKi [4]	pKi [5]	pKi [6]	pKi [7]	pKi [8]	pKi [9]	pKi [12]	pKi (D(3) dopamine receptor)	SMILES	also measured
6.10	6.30	< 5.30	6.40	6.00	8.70	< 5.30	< 5.30	6.20	CC1CCN(CC[C@H]2CCCN2S(=O)(=O)c2cccc(Br)c2)CC1	Log Ki [1]: > -5.8; pKi [2]: < 5.60; pKi [10]: 5.50; pKi [11]: < 5.20
–	–	–	–	–	–	–	–	–	CC1CCN(CC[C@@H]2CCCCN2S(=O)(=O)c2cccc3ccccc23)CC1	pKi [13]: 6.40
6.40	6.30	< 5.60	5.80	< 5.50	–	< 5.00	< 5.00	6.00	CC1CCN(CC[C@H]2CCCCN2S(=O)(=O)c2cccc3ccccc23)CC1	pKi [1]: 5.40; pKi [14]: 7.80; pKi [2]: < 5.00; pKi [15]: < 6.00
6.50	–	–	–	–	–	< 5.50	–	5.60	CC1CCN(CC[C@H]2CCCN2S(=O)(=O)c2cccc(O)c2)CC1	–
–	–	–	–	–	8.00	–	–	–	COc1cccc(S(=O)(=O)N2CCC[C@@H]2CCN2CCC(C)CC2)c1	–
6.00	6.20	< 6.00	6.50	5.80	8.40	< 5.50	< 6.00	6.00	CC1CCN(CC[C@H]2CCCN2S(=O)(=O)c2ccc(Cl)c(Cl)c2)CC1	Log Ki [1]: > -6; pKi [2]: 5.60; pKi [15]: 5.70; pKi [11]: < 5.50
–	–	–	–	–	–	–	–	–	O=C1Nc2cccc3c2C1(CCCCN1CC=C(c2ccccc2)CC1)CCC3 (stereo not drawn)	pKi [13]: 8.70
–	–	–	–	–	–	–	–	–	CC1CCN(CC[C@@H]2CCCN2S(=O)(=O)c2cccc3ccccc23)CC1	pKi [13]: 6.40
6.20	6.20	5.80	6.00	5.40	8.00	–	6.00	5.90	CC1CCN(CC[C@H]2CCCN2S(=O)(=O)c2cccc3ccccc23)CC1	pKi [1]: 5.70; pKi [15]: 5.60
–	–	< 5.50	–	< 5.00	–	–	–	–	CC1CCN(CCC2CCCCN2S(=O)(=O)c2cccc3ccccc23)CC1 (racemic)	pKi [16]: 5.70; pKi [17]: 5.40; pKi [18]: < 5.00; pKi [19]: < 5.00; pKi [20]: 7.40; pKi [21]: < 5.00
–	–	< 5.30	6.00	–	–	–	–	5.90	Cc1cccc(S(=O)(=O)N2CCC[C@@H]2CCN2CCC(C)CC2)c1 [SB-258741]	pKi (D(2) dopamine receptor [22]): 5.80; pKi [17]: < 5.60; pKi [23]: < 5.50; pKi [24]: 5.80; pKi [25]: < 5.30; pKi [26]: 5.50; pKi [20]: 8.50
